In patent US20070191325A1, “Methods for altering insulin secretion” (priority 2004, published 2007):

Columns and labels:
INS-1 cells = experiment: Glucose-induced insulin secretion of INS-1 cells; type: cell-based, rat; conditions: INS-1 cells pretreated with 100 nM dexamethasone
Experimental: Prior to the experiment INS-1 cells were treated in culture with dexamethasone, 100 nM, for 4 h. Cells were washed twice and preincubated in HEPES buffered salt solution containing (in mmol/l): 140 NaCl, 5.6 KCl, 1.2 MgCl2, 2.6 CaCl2, 0.5 glucose, 10 HEPES and 5 g/l bovine serum albumin, pH 7.4 at 37° C. Thereafter cells were incubated for 30 min at 37° C. in fresh solution containing the test substances at the appropriate concentrations. Insulin was measured by radioimmunoassay using rat insulin antiserum (Linco, Biotrend Chemikalien GmbH, Cologne, Germany), I^125-insulin (CIS Diagnostik GmbH, Dreieich, Germany) and rat insulin (Novo Nordisk, Mainz, Germany) as standard or by an Insulin Elisa kit (Mercodia, Uppsala, Sweden).
INS-1 cells (kindly provided by CB Wollheim, University of Geneva, Switzerland) derived from a rat insulinoma were cultured in HEPES-buffered RPMI 1640 supplemented with 10% fetal calf serum (Biochrom, Berlin, Germany), 1 mmol/l HEPES, 1 mmol/l Na pyruvate, 10 μmol/l β-mercaptoethanol (Sigma, Munich, Germany) and antibiotics as described elsewhere (Abel et al., 1996; Asfari et al., 1992). Cells were seeded at a cell density of 2.0-2.5 10^5 cells/ml in 24-well culture plates and cultured for 2 days prior to the experiment. Cells were washed twice with HEPES buffered salt solution containing (in mmol/l): 140 NaCl, 5.6 KCl, 1.2 MgCl2, 2.6 CaCl2, 0.5 glucose, 10 HEPES and 5 g/l bovine serum albumin, pH 7.4. and preincubated for 30 min at 37° C. […] Incubations were stopped on ice, medium removed and frozen at −20° C. until insulin released into the supernatant was measured by radioimmunoassay using rat insulin antiserum (Linco, Biotrend Chemikalien GmbH, Cologne, Germany), I^125-insulin (CIS Diagnostik GmbH, Dreieich, Germany) and rat insulin (Novo Nordisk, Mainz, Germany) as standard or an insulin Elisa kit (Mercodia, Uppsala, Sweden). Insulin content was measured after extraction with acid ethanol (1.5 (v/v) % HCl/75% ethanol) over night at 4° C.

[1] = system: SGK1 transcript levels in INS-1 cells; experiment: Real time PCR of SGK1 mRNA in INS-1 cells; type: cell-based, rat; conditions: with 100 nM dexamethasone
[2] = system: SGK1 protein in INS-1 cells; experiment: Western blotting of SGK1 protein in INS-1 cells; type: cell-based, rat
Experimental: INS-1 cells were treated with 100 nM dexamethasone or vehicle (DMSO) in culture for the indicated periods of time.
Plots were incubated with antibodies against SGK1 (New England Biolabs, Beverly, Mass., USA). Bound antibody was visualized using a second antibody coupled to horse radish peroxidase.
Thereafter, culture medium was removed and cells were lysed in a solution containing 300 mM NaCl, 20 mM Tris HCl, pH 7.4, 1% (v/v) Triton X-100, 1% Sodiumdeoxycholate, 0.1% SDS, 2.5 mM EDTA, 10 μg/ml Pepstatin A, 10 μg/ml Aprotinin and 0.1 mM PMSF. Total cellular protein, 50 μg, quantified by Coomassie Blue G staining (Bradford dye assay, Biorad Laboratories GmbH, Munich, Germany) was subjected to SDS-PAGE (1%), and plotted onto a nitrocellulose membrane (Schleicher and Schuell, Dassel, Germany). Plots were incubated with antibodies against SGK1 (New England Biolabs, Beverly, Mass., USA). Bound antibody was visualized using a second antibody coupled to horse radish peroxidase.

[3] = molecular target: nuclear glucocorticoid receptor (Mus musculus, UniProt P06537); conditions: Lambillotte et al., 1997; cited from earlier work
Chain of nuclear glucocorticoid receptor (P06537 whole entry): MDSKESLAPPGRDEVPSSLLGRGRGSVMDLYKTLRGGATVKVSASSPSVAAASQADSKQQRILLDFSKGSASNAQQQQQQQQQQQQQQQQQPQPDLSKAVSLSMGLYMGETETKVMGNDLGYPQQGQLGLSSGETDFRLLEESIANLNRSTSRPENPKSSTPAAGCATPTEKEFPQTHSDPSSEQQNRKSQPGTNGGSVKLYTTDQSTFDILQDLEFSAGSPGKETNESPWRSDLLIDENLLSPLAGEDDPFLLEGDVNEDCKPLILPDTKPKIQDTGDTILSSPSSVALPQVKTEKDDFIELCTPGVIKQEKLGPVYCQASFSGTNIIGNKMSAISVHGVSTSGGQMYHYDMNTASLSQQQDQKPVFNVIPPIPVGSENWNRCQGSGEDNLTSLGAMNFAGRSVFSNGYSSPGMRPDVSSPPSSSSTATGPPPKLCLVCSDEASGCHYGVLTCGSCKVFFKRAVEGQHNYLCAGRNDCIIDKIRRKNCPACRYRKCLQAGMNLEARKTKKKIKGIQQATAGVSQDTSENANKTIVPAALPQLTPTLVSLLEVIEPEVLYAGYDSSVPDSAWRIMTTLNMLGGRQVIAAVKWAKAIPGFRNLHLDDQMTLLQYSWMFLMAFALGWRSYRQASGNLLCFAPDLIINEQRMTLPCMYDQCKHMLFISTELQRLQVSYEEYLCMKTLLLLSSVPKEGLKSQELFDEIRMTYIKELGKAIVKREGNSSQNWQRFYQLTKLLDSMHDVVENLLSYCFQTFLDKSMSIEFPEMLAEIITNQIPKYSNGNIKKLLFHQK

Kv1.5 mRNA in INS cells = experiment: Real time PCR of Kv1.5 mRNA in INS-1 cells; type: cell-based, rat; conditions: 100 nM dexamethasone, within 4 hours
[4] = system: voltage gated outward current (Kv channels) in INS-1 cells; experiment: Patch clamp measurement of whole cell outward current in INS-1 cells; type: cell-based, rat; conditions: for 4-AP sensitive current: INS-1 cells after 4 hours 100 nM dexamethasone; for inhibition of outward current: untreated INS-1 cells
Experimental: Cells were treated prior to the experiment with 100 nm dexamethasone for 4 h. (2A) whole cell current was induced by 200 ms voltage pulses increasing by 10 mv steps from −70 mv to +50 mv. (2B) Sensitivity to 4-ap (0.1 and 1 mm) and tea (1 and 10 mm) was tested in cells before (black columns) and after dexamethasone treatment (white columns). Voltage pulses of 200 ms duration from −70 to 50 mv were applied. Shown are means±sem for the indicated number of experiments. * denotes significance (p<0.05) to current in control, non treated cells at the same inhibitor concentration. Ins-1 cells were cultured as described before (Abel et al., 1996; Asfari et al., 1992). The external patch clamp solution contained (in mmol/l): 140 NaCl, 5.6 KCl, 1.2 MgCl2, 2.6 CaCl2, 0.5 glucose and 10 HEPES, PH 7.4. The internal solution contained (in mmol/l): 30 KCL, 95 K^+-gluconate, 1 MgCl2, 1.2 NaH2PO4, 4.8 Na2HPO4, 5 Na2ATP, 1 Na3GTP, 5 mmol/l EGTA, PH 7.2. An Epc9 Patch Clamp Amplifier (Heka Electronic, Lambrecht, Germany) Was Used For Current Measurements.
INS-1 cells were cultured for 2-4 days on glass cover slips coated with poly-L-ornithine (10 mg/l Sigma, Munich, Germany) at appropriate cell densities (1.2×10^6 cells/ml). The cover slips were mounted in a bath chamber on the stage of an inverted microscope (IM, Zeiss, Jena, Germany). The cells were kept at room temperature or at 34° C. as indicated for each experiment and superfused with a solution containing (in mmol/l): 140 NaCl, 5.6 KCl, 1.2 MgCl2, 2.6 CaCl2, 0.5 glucose and 10 HEPES, pH 7.4. The patch clamp pipettes (Clark-Medical, Reading, Great Britain) with a resistance of 4-6 MΩ were pulled using a DMZ-universal puller (Zeitz, Augsburg, Germany). They were filled with an internal solution containing (in mmol/l): 30 KCl, 95 K^+-gluconate, 1 MgCl2, 1.2 NaH2PO4, 4.8 Na2HPO4, 5 Na2ATP, 1 Na3GTP, 5 mmol/l EGTA, pH 7.2. An EPC9 patch clamp amplifier (Heka Electronic, Lambrecht, Germany) was used for current measurements. Only stable current measurements, i.e. when currents reached at least 90% of control current after removal of the respective inhibitory drug, were used for analysis.

CC[N+](CC)(CC)CC [TEA]
effect on dexamethasone-induced inhibition of insulin secretion (INS-1 cells): reversed

CC#C[C@]1(O)CC[C@H]2[C@@H]3CCC4=CC(=O)CCC4=C3[C@@H](c3ccc(N(C)C)cc3)C[C@@]21C [RU486, mifepristone]
effect on dexamethasone-induced increase of SGK1 mRNA transcript levels [1]: completely abrogated | effect on dexamethasone-induced SGK1 expression ([2]; RU486 at 1 μmol/l, with 100 nM dexamethasone): completely inhibited | effect on dexamethasone-induced increase in SGK1 protein abundance ([2]; with 100 nM dexamethasone): fully reversed | effect on dexamethasone-induced inhibition of insulin secretion [3]: completely abolished

C[C@@H]1C[C@H]2[C@@H]3CCC4=CC(=O)C=C[C@]4(C)[C@@]3(F)[C@@H](O)C[C@]2(C)[C@@]1(O)C(=O)CO [dexamethasone]
time until SGK1 protein / expression appears ([2]; 100 nM dexamethasone): ≤ 2 h | increase of abundance of Kv1.5 mRNA (factor) (Kv1.5 mRNA in INS cells): approx. 10 | inhibition at 0.1 µM (INS-1 cells; Rattus norvegicus, INS1): 62%

Nc1ccncc1 [4-AP]
4-AP sensitive current ([4]; 0.1 mM 4-AP): 28% | 4-AP sensitive current ([4]; 1 mM 4-AP): 40% | inhibition of outward current ([4]; 0.1 mM 4-AP): 10% | inhibition of outward current ([4]; 1 mM 4-AP): 28% | effect on dexamethasone-induced inhibition of insulin secretion (INS-1 cells): reversed
